Results as given in PubChem BioAssay (NCI).
Several values for one entry are separate records, joined by “and”; a condition that tells them apart may be missing. Equal entries are not always repeated.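 Test compounds were applied to cells in 96-well plates for 48 hours at 5 doses. GI50 is the concentration that inhibits growth by half. TGI: concentration producing complete growth inhibition.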

Columns and labels:
Assay in all cases: growth of human tumour cells (NCI), 48 h; in the data active = GI50 below about 0.43 µM; inactive = the rest
[1] = system: TK-10 renal
[2] = system: RXF 393 renal
[3] = system: SW-620 colon
[4] = system: NCI-H522 lung
[5] = system: KM12 colon
[6] = system: HT29 colon
[7] = system: SN12C renal
[8] = system: EKVX NSCLC
[9] = system: A498 renal
[10] = system: HCT-116 colon

Cc1cc(Cl)ccc1OCC(=O)Oc1c(Cl)c(Cl)c(Cl)c(Cl)c1Cl
62.9 µM: TGI [7] | TGI [9]
48.4 µM: TGI [4]
52.4 µM: TGI [5]
56.4 µM: TGI [8]
37.3 µM: TGI [2]
> 100 µM: TGI [3]
69.1 µM: TGI [1] | TGI [6]
45.8 µM: TGI [10]

COc1cc(C(C)c2cc3c(cc2OCCOCCOc2cc4c(cc2C(C)c2cc(OC)c(OC)c(OC)c2)OCO4)OCO3)cc(OC)c1OC (configuration not stated)
> 100 µM: TGI [1] | TGI [2] | TGI [3] | TGI [4] | TGI [5] | TGI [6] | TGI [7] | TGI [8] | TGI [9] | TGI [10]
inactive: GI50 [1] > 100 µM | GI50 [2] > 100 µM | GI50 [3] > 100 µM | GI50 [4] > 100 µM | GI50 [5] > 100 µM | GI50 [6] > 100 µM | GI50 [7] > 100 µM | GI50 [8] > 100 µM | GI50 [9] > 100 µM | GI50 [10] > 100 µM

O=S(O)CCCCSSCCCCS(=O)(O)=S
> 100 µM: TGI [1] | TGI [2] | TGI [3] | TGI [5] | TGI [6] | TGI [7] | TGI [9] | TGI [10]
65.6 µM: TGI [4]
88.6 µM: TGI [8]

O=C(O)c1cc2c3c(c1)[C@H]1C=CC[C@H]1CN3CC1CC=CC21 (some centres not stated)
> 100 µM: TGI [1] | TGI [2] | TGI [3] | TGI [4] | TGI [5] | TGI [6] | TGI [7] | TGI [8] | TGI [9] | TGI [10]

CC(C)(C)OC(=O)N(CCCn1c2c(c3ccccc3c1=O)C(=O)c1ccccc1-2)CCN(CCCn1c2c(c3ccccc3c1=O)C(=O)c1ccccc1-2)C(=O)OC(C)(C)C
> 50 µM: TGI [1] | TGI [2] | TGI [3] | TGI [4] | TGI [5] | TGI [6] | TGI [7] | TGI [8] | TGI [9] | TGI [10]
inactive: GI50 [1] > 50 µM | GI50 [2] 12.6 µM | GI50 [3] 49.1 µM | GI50 [4] 21.3 µM | GI50 [5] > 50 µM | GI50 [6] > 50 µM | GI50 [7] 39.9 µM | GI50 [8] > 50 µM | GI50 [9] > 50 µM | GI50 [10] 14.1 µM

COc1ccc(-c2ccc(=O)oc2-c2cc(OC)c(OC)c(OC)c2)cc1O
active: GI50 [2] < 0.01 µM | GI50 [3] < 0.0147 µM | GI50 [4] 0.0124 µM | GI50 [5] < 0.0248 µM | GI50 [7] 0.0697 µM | GI50 [8] 0.0807 µM | GI50 [9] 0.0315 µM | GI50 [10] 0.0242 µM
> 35.8 µM: TGI [5]
> 100 µM: TGI [1] | TGI [3] | TGI [7] | TGI [8] | TGI [10]
0.0944 µM: TGI [4]
> 77.6 µM: TGI [9]
inactive: GI50 [1] 62.3 µM | GI50 [6] 0.663 µM
0.011 µM: TGI [2]

CCCCCCCCCCCCCCCC[N+](C)(C)C
2.81 µM: TGI [1]
5.25 µM: TGI [9]
1.03 µM and 1.97 µM: TGI [6]
0.258 µM and 1.01 µM: GI50 [10]
1.07 µM and 4.56 µM: TGI [7]
inactive: GI50 [1] 1.11 µM | GI50 [5] 1.36 µM | GI50 [8] 0.577 µM and 1.59 µM | GI50 [9] 1.96 µM
0.285 µM and 2.06 µM: GI50 [7]
0.244 µM and 0.83 µM: TGI [2]
0.239 µM and 1.31 µM: GI50 [3]
2.79 µM: TGI [5]
1.04 µM and 2.57 µM: TGI [10]
0.329 µM: TGI [4]
0.859 µM and 2.97 µM: TGI [3]
active: GI50 [2] 0.0963 µM and 0.235 µM | GI50 [4] 0.139 µM
3.17 µM and 4.28 µM: TGI [8]
0.0658 µM and 0.516 µM: GI50 [6]

CC(C)c1cccc2sc(NC(=O)C(=O)CC(=O)c3ccc(F)cc3)nc12
> 100 µM: TGI [1] | TGI [2] | TGI [3] | TGI [4] | TGI [5] | TGI [6] | TGI [7] | TGI [8] | TGI [9] | TGI [10]

COc1cc(C)c(N(C)C(=O)CN(C)C)cc1Nc1nc(Nc2cccc(F)c2C(N)=O)c2cc[nH]c2n1
> 25 µM: TGI [1] | TGI [2] | TGI [3] | TGI [4] | TGI [5] | TGI [6] | TGI [7] | TGI [8] | TGI [9] | TGI [10]
inactive: GI50 [1] > 22 µM | GI50 [2] 20.5 µM | GI50 [3] > 22.4 µM | GI50 [4] > 25 µM | GI50 [5] > 25 µM | GI50 [6] 1.37 µM | GI50 [7] > 25 µM | GI50 [8] > 25 µM | GI50 [9] > 13.9 µM | GI50 [10] 15.7 µM

O=c1cc(-c2ccccc2)oc2cc(OCc3cn(Cc4ccc(F)cc4)nn3)cc(O)c12
inactive: GI50 [1] 10.4 µM | GI50 [2] 3.58 µM | GI50 [3] > 100 µM | GI50 [4] 6.6 µM | GI50 [5] > 100 µM | GI50 [6] > 100 µM | GI50 [7] > 100 µM | GI50 [8] 63.8 µM | GI50 [9] 42 µM | GI50 [10] 5.91 µM
30.1 µM: TGI [2]
28.6 µM: TGI [1]
> 100 µM: TGI [3] | TGI [4] | TGI [5] | TGI [6] | TGI [7] | TGI [8] | TGI [9] | TGI [10]

CCN(CC)CCNc1ccc(CO)c2sc3ccccc3c(=O)c12
26 µM [middle of 4 runs]: TGI [5]
28.7 µM [middle of 4 runs]: TGI [8]
8.45 µM and 19 µM and 20.3 µM: TGI [2]
inactive: GI50 [1] 2.96 µM | GI50 [2] 2.23 µM and 7.35 µM | GI50 [3] 4.69 µM | GI50 [4] 1.48 µM and 8.14 µM | GI50 [7] 6.55 µM [middle of 4 runs] | GI50 [8] 3.92 µM and 16.2 µM | GI50 [9] 1.26 µM and 6.98 µM and 3.61 µM | GI50 [10] 4.28 µM
11.4 µM and 24.9 µM: TGI [1]
17.4 µM [middle of 4 runs]: TGI [3]
20 µM [middle of 4 runs]: TGI [7]

O=C(CN1C(=O)c2ccccc2C1=O)OC1C=CCCC1 (configuration not stated)
> 100 µM: TGI [1] | TGI [2] | TGI [3] | TGI [4] | TGI [5] | TGI [7] | TGI [8] | TGI [9] | TGI [10]
